One block for each compound: values may come before it.
Experiments:
[1] = system: NLRP1 inflammasome; experiment: IL-1β secretion in macrophages challenged with L18-MDP (FIG. 4C); assay type: cell-based, human; details: BT032 20, 100 μM; MCC950 5 μM; L18-MDP 100 μg/ml 16 h
Text: (§1) In vitro stimulation of human macrophages.

[2] = target: T1, recombinant full length NLRP1 (Homo sapiens, UniProt Q9C000); experiment: Photo-affinity labelling of recombinant full length NLRP1, anti-PEG immunoblot (FIG. 9E); assay type: binding; details: pre-incubation, UV 365 nm, then ADS165
T1 sequence (Q9C000 1-1473): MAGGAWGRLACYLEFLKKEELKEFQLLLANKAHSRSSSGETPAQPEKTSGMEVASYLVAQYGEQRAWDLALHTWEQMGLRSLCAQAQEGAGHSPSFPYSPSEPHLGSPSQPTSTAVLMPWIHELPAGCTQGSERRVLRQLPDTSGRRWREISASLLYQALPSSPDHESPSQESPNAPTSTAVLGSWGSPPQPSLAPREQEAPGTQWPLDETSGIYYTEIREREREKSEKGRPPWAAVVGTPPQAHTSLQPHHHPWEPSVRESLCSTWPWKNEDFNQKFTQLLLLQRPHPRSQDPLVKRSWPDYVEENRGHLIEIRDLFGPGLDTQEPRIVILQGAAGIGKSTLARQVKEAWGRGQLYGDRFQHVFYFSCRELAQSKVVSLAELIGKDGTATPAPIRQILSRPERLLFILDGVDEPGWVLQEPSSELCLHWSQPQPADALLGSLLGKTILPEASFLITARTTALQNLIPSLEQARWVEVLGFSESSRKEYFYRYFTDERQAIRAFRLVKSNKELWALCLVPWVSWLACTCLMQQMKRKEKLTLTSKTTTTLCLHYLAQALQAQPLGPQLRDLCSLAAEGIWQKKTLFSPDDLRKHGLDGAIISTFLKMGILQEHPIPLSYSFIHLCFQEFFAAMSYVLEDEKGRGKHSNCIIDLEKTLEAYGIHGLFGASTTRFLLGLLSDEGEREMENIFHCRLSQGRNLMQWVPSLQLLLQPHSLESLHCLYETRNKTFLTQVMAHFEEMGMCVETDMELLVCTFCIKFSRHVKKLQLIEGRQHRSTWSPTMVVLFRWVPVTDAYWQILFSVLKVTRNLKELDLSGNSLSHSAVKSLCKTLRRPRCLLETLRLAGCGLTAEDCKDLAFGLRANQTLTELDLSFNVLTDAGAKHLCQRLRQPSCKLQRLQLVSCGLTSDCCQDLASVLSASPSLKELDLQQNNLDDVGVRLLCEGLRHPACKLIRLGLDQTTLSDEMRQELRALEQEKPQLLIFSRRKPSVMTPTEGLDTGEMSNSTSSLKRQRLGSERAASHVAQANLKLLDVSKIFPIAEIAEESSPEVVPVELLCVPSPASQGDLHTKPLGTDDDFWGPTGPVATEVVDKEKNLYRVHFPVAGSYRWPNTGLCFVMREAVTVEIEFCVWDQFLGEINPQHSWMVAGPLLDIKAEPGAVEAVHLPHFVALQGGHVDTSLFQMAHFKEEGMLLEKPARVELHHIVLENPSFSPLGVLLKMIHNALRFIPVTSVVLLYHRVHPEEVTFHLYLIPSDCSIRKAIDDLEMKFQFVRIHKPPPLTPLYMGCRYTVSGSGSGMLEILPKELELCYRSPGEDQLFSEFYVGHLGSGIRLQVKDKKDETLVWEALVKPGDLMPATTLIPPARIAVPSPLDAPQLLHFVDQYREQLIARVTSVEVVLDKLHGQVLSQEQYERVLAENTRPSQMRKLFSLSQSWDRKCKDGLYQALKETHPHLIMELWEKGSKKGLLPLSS
Experimental: FIGS. 9A-9F are a series of panels showing ADS032 (also referred to herein as “BT032”) directly binds to NLRP1 and NLRP3. FIGS. 9A and 9B are chemical structures of ADS165 and ADS167. […] ADS165 was then co-incubated for 20 mins and UV treated for 20 mins to cross-link associated compound and protein. Protein was separated by SDS-PAGE and immunoblotted (IB) with anti-PEG to visualize ADS165-linked protein. FIG. 9D: iBMDM cells stably expressing NLRP3-Flag were treated for 30 mins with ADS165, ADS167 (1 mM) or MCC955 (50 μM) for 30 mins, and irradiated with UV 365 nm for 30 mins. Cells were lysed with buffer and immunoprecipitation (IP) of NLRP3 performed with α-NLRP3 (D4D8T) antibody. Levels of precipitated (IP) and total cellular lysate (Input) NLRP3 were determined by immunoblotting with α-NLRP3 (Cryo-2) antibody. FIG. 9F: NLRP1-Flag was expressed in HEK293T cells (1×10^6) for 20 h and treated with ADS165 (1 mM) for 30 mins where indicated, followed by UV 365 nm for a further 30 mins. Cells were lysed with lysis buffer and […] immunoprecipitated with α-Flag (M2) antibody. Proteins were separated by SDS-PAGE and ADS165-linked NLRP1 identified by immunoblot with a-PEG, while total precipitated NLRP1 visualized by immunoblot with α-NLRP1 and total cell lysate by α-Flag. Data shown is representative of three independent experiments.
Next, it was determined whether ADSO32 could interact with NLRP1. […] To further investigate this interaction, ectopically expressed Flag-tagged NLRP1 was immunoprecipitated from cell lysates pretreated or not with ADS165 and exposed to UV light.

[3] = target: NLRP3 inflammasome (Mus musculus, UniProt Q8R4B8); experiment: IL-1β secretion (ELISA) in LPS-primed iBMDMs stimulated with silica or nigericin; assay type: cell-based, murine (C57BL/6); parameters: endogenous in cells; host or cells: immortalized wild-type C57BL/6 bone-marrow derived macrophages (iBMDMs), LPS-primed; details: compared with probenecid in DMSO or PBS
NLRP3 inflammasome, sequence (Q8R4B8 whole entry): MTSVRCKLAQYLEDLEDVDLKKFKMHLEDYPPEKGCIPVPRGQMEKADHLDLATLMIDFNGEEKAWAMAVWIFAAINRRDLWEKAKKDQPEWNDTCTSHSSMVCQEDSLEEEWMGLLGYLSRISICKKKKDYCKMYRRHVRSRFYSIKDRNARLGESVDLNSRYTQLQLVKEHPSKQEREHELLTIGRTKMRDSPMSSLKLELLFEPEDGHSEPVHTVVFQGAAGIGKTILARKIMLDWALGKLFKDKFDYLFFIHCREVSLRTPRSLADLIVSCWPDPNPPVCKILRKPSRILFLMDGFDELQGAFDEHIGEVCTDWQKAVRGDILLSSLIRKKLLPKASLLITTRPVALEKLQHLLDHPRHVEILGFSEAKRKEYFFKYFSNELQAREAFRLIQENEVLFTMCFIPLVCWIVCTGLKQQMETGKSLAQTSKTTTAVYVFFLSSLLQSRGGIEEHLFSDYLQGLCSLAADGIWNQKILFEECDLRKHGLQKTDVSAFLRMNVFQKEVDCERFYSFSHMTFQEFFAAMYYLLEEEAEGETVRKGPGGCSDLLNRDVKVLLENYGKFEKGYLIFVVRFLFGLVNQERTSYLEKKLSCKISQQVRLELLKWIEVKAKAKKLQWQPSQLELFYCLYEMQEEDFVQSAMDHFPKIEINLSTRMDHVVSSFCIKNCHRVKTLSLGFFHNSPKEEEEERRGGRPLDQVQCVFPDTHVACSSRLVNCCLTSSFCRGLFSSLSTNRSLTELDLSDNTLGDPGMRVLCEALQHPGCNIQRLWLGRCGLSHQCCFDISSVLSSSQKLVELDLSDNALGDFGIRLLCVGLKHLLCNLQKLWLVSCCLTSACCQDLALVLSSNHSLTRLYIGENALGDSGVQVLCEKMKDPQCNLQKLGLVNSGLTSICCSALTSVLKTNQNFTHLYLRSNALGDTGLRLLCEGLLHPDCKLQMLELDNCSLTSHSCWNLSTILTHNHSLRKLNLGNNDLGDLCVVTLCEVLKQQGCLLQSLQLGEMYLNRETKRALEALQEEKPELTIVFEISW
Experimental: In vitro stimulation of murine macrophages. Immortalized wild-type C57BL/6 bone-marrow derived macrophages (iBMDMs) were grown in DMEM supplemented with 10% heat inactivated FBS and 2 mM glutamine. iBMDMs were seeded in 96-well plates 24 hours prior incubation with lipopolysaccharide (LPS; 100 ng/mL) for 3 hours. Cells were then incubated with a control probenecid compound (probenecid dissolved in DMSO (Prob/D), probenecid dissolved in PBS (Prob/P)) or one of the probenecid analogs of the present technology (BT032, BT132, BT133, BT134, BT135, BT136, BT137, BT138, BT139, or BT140) at concentrations of 300 μM, 150 μM, 30 μM, or 3 μM 1 hour prior to stimulation with NLRP3 inflammasome activators, silica ([…]) or nigericin (6 μM). After an additional 6 hours, cell supernatants were collected and levels of IL-1β were quantified by ELISA. These experiments were run in triplicate three times.

[4] = system: NLRP1 inflammasome; experiment: IL-1β secretion in macrophages challenged with L18-MDP (FIG. 7); assay type: cell-based, human; details: 20, 100, 350 μM, L18-MDP 100 μg/mL 16 hours, secreted IL-1β
Text: as §1

[5] = system: NLRP3; experiment: D4D8T immunoprecipitation of NLRP3 from photo-labelled iBMDMs (FIG. 9D); details: ADS165, ADS167 1 mM; MCC 50 μM; UV 365 nm 30 mins
[6] = target: T2, NLRP3 (Mus musculus, UniProt Q8R4B8); experiment: NLRP3-induced IL-1β secretion from iBMDMs, photo-affinity probes; assay type: cell-based; details: data not shown
T2 construct: endogenous in cells; host or cells: iBMDMs
T2 sequence (Q8R4B8 whole entry): as above
Text: To verify interaction with target proteins, a photo-affinity labeling strategy (MacKinnon+Taunton, 2009) was developed where two modified versions of ADSO32 (1) containing an alkyne photoactivatable moiety linked with a PEG550 moiety to allow visualization (FIG. 9A) termed ADS165; and (2) ADSO32 linked with a diazirine photo-affinity label, (FIG. 9B) termed ADS167 were synthesized. Both photo-affinity labels covalently cross-link to molecular targets when exposed to ultraviolet light (365 nm).

[7] = system: Recombinant NLRP3; experiment: Photo-affinity labelling of recombinant NLRP3, anti-PEG immunoblot (FIG. 9C); assay type: binding; details: pre-incubation 20 mins, UV 365 nm, then ADS165

competition with ADS165 interaction with NLRP1 [2]: no effect
Compound: CC(C)(O)c1coc(S(=O)(=O)NC(=O)Nc2c3c(cc4c2CCC4)CCC3)c1 [MCC950, reference compound]
NLRP1 (L18-MDP)-induced inflammasome activation [1]: no impact

Compound: CCCN(CCC)S(=O)(=O)c1ccc(-c2nc(CCCC(=O)O)cs2)cc1 [BT136, 4-(2-(4-(N,N-dipropylsulfamoyl)phenyl)thiazol-4-yl)butanoic acid]
potency versus control probenecid compounds (IL-1β secretion) [3]: more potent than the control probenecid compounds | NLRP1 (L18-MDP)-induced inflammasome activation [4]: dose-dependently inhibited

efficacy relative to ADS032 (NLRP3-induced IL-1β secretion) [6]: reduced efficacy as compared to ADS032 | competition with ADS165 interaction with NLRP1 [2]: could ablate interaction
Compound: CCCCN(CCC)S(=O)(=O)c1ccc(-c2ccc(CCCC(=O)NCc3ccc(C4(C(F)(F)F)N=N4)cc3)cc2)cc1 [ADS167]
D4D8T-mediated NLRP3 immunoprecipitation [5]: reduced the efficacy of D4D8T-mediated NLRP3 immunoprecipitation | NLRP3-induced IL-1β secretion from iBMDMs [6]: still able to inhibit NLRP3-induced IL-1β secretion | competition with ADS165 labelling of NLRP3 [7]: inhibited the ability of ADS165 to label NLPR3

Compound: CCCN(CCC)S(=O)(=O)c1ccc(N2CCC(CCCC(=O)O)CC2)cc1 [BT135, 4-(1-(4-(N,N-dipropylsulfamoyl)-phenyl)piperidin-4-yl)butanoic acid]
NLRP1 (L18-MDP)-induced inflammasome activation [4]: dose-dependently inhibited

From patent publication US20260176232A1, “PROBENECID COMPOUNDS FOR THE TREATMENT OF INFLAMMASOME-MEDIATED DERMATOLOGICAL CONDITIONS” (Bacainn Biotherapeutics, Ltd., priority 2022, published 2026)
